Assay results: patent publication US11559231B2, “System and method for determining a discrimination index for fear-potentiated startle” (Rosalind Franklin University of Medicine and Science, priority 2018, dated 2023)
Structures can show the parent of a compound that is named as a salt.

Molecular target: T1, OT receptors (OTR) in the BNSTdl (Rattus norvegicus, UniProt P70536)
T1 construct: OT (100 ng), OTA (200 ng), or ACSF (all in volume of 0.5 μl per side) was injected bilaterally into the BNSTdl; from tissue; host or cells: brain (dorsolateral bed nucleus of the stria terminalis) of live male Sprague-Dawley rats
T1 sequence (P70536 1-388): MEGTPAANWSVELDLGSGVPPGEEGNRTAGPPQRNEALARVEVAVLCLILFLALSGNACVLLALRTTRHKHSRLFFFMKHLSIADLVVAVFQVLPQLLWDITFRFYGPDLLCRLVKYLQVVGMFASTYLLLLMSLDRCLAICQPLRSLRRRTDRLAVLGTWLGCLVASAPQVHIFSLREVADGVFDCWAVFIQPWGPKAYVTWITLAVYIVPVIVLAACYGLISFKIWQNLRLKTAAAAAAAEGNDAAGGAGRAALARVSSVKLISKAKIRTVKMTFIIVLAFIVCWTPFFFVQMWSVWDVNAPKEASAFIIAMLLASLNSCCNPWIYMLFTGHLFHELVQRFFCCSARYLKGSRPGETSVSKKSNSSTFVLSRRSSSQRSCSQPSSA
Experiment: Fear-potentiated startle (FPS): intra-BNSTdl OT or OTA before cued fear conditioning, then fear recall testing
Assay type: in vivo
Details: for TREATMENT effect on cued fear (percentage change of startle amplitude): OT 100 ng or OTA 200 ng bilateral intra-BNSTdl 10 min before fear conditioning, recall 24 h later in context B, P=0.0981; for TREATMENT effect on cued fear (percentage change of startle amplitude) / total discrimination index (DI) for the FPS session: one-way ANOVA ACSF/OT/OTA; for total discrimination index (DI) for the FPS session: all trials, P=0.1492; for discrimination between cued and non-cued fear (summary statement): infused into the BNSTdl before fear conditioning, FPS; for TREATMENT effect on cued fear (percent change), negative controls: injection sites outside the BNST, P=0.3990; for discrimination index over four time blocks, negative controls: injection sites outside the BNSTdl, P=0.5828; for discrimination index over four time blocks, negative controls / startle amplitude, light-noise vs noise-alone trials: effect of TREATMENT: two-way repeated measures ANOVA; for mean shock reactivity during the fear conditioning session / TREATMENT effect on percentage change of contextual fear / TREATMENT effect on percentage change of non-cued fear / startle amplitude, light-noise vs noise-alone trials: effect of TREATMENT: intra-BNSTdl ACSF, OT 100 ng, OTA 200 ng; for mean shock reactivity during the fear conditioning session: P=0.8684; for TREATMENT effect on percentage change of contextual fear: context A, day 5; for TREATMENT effect on percentage change of non-cued fear: context B, P=0.8993; for startle amplitude, light-noise vs noise-alone trials: effect of TREATMENT: P=0.8478
Procedure: A total of 75 rats were used for FPS experiments. The ACSF-treated group consisted of 23 rats, whereas there were 14 OT and 16 OTR antagonist (OTA)-treated rats included in the main analysis. […] These rats were analyzed as negative controls.
Stereotaxic surgery technique was identical to above except that guide cannulas were implanted bilaterally instead of a microdialysis probe (Moaddab and Dabrowska, 2017).
OT (100 ng), OTA (200 ng), or ACSF (all in volume of 0.5 μl per side) was injected bilaterally into the BNSTdl through a microinjector (28-gauge, 7 mm length; Plastics One, Roanoke, Va.) as described before (Moaddab and Dabrowska, 2017). Doses of OT and OTA were chosen based on previous studies on fear and anxiety in rats (Bale et al., 2001; Toth et al., 2012; Lahoud and Maroun, 2013; Neumann and Slattery, 2016; Moaddab and Dabrowska, 2017). Rats were assigned based on a second pre-test ASR into three treatment groups. Fear conditioning sessions were performed 10 min after the intra-BNSTdl injections.
FPS procedures were modified based on previous studies and according to protocol described in detail before (Walker et al., 2009; Missig et al., 2010; Ayers et al., 2011; Moaddab and Dabrowska, 2017). On days 1 and 2, rats underwent two pre-test sessions. On day 3 (fear conditioning), animals were placed in cylindrical enclosures containing a grid floor conveying foot shocks (as above). After 5 min acclimation, animals received 10 presentations of a 3.7 s cue light (CS), each co-terminating with a 0.5 s foot shock (US; 0.5 mA, inter-trial-interval 60-180 s). Background noise was absent during the conditioning session. Enclosures and chambers were cleaned with PREempt RTU disinfectant solution (Virox Technologies, Oakville, Canada) before and after each fear […] conditioning session (context A). Twenty-four hours later, on day 4, rats were tested for FPS expression (recall test) in context B. After 5 min of acclimation, they were exposed to 50 startle-eliciting WNBs (as above) and levels of cued and non-cued fear were measured. A background white noise of 70 dB continuously played throughout the session. The session consisted of 10 baseline startle trials (excluded from the analysis) followed by an additional 40 trials, with half presented in the presence of the cue light (CS+, light-noise) and the other half without the CS (CS-, noise-alone) in a pseudorandom order (inter-trial-interval 30 s). To make context A distinct from context B, enclosures and chambers were cleaned with 70% ethanol before and after the […] (different than in fear conditioning). The grid floor was also removed from the enclosures during cued FPS testing. In addition, a different experimenter from the training session performed the FPS testing session. On day 5, the same rats were tested for contextual fear recall in context A, where after 10 baseline startle trials (excluded from the analysis), startle amplitude was measured during 40 additional CS− trials (noise-alone, inter-trial-interval 30 s, FIG. 5, C).
Startle amplitude was defined as the maximum peak voltage within the first 200 ms after onset of the WNB. Shock reactivity amplitude was recorded during the fear conditioning session and was defined as the maximum peak voltage that occurred during the 500 ms foot shock delivery. Cued, non-cued, and contextual fear, were calculated as percent change scores of startle amplitude based on previous FPS studies (Walker et al., 2009; Missig et al., 2010; Ayers et al., 2011; Moaddab and Dabrowska, 2017).

Molecule | discrimination index in the fourth time block of fear memory recall, vs ACSF-treated group (OT 100 ng intra-BNSTdl, Bonferroni post hoc, P=0.0121) | TREATMENT effect on cued fear (percentage change of startle amplitude) | total discrimination index (DI) for the FPS session | discrimination between cued and non-cued fear (summary statement) | TREATMENT effect on cued fear (percent change), negative controls | discrimination index over four time blocks, negative controls | mean shock reactivity during the fear conditioning session | TREATMENT effect on percentage change of contextual fear | TREATMENT effect on percentage change of non-cued fear | startle amplitude, light-noise vs noise-alone trials: effect of TREATMENT | discrimination index in the fourth time block of fear memory recall, OT vs OTA-treated groups (OT 100 ng vs OTA 200 ng intra-BNSTdl, Bonferroni post hoc, P=0.0007) | OTA effect on cued fear vs ACSF (OTA 200 ng intra-BNSTdl, un-paired t-test vs ACSF, P=0.0763)
CC[C@H](C)[C@@H]1NC(=O)[C@H](Cc2ccc(O)cc2)NC(=O)[C@@H](N)CSSC[C@@H](C(=O)N2CCC[C@H]2C(=O)N[C@@H](CC(C)C)C(=O)NCC(N)=O)NC(=O)[C@H](CC(N)=O)NC(=O)[C@H](CCC(N)=O)NC1=O [OT, OT acetate salt] | significant differences in the discrimination indices | a trend in the TREATMENT effect on cued fear | not significantly different | significantly increases discrimination between cued and non-cued fear | no significant effect of TREATMENT on cued fear | no significant main effect of TREATMENT | not different | no TREATMENT effect | no TREATMENT effect | no main effect of TREATMENT |  | 
(d(CH2)5^1, D-Tyr^2, Thr4, Orn8, des-Gly-NH2 9)-vasotocin trifluoroacetate salt [OTA] |  | a trend in the TREATMENT effect on cued fear | not significantly different | disables this discrimination | no significant effect of TREATMENT on cued fear | no significant main effect of TREATMENT | not different | no TREATMENT effect | no TREATMENT effect | no main effect of TREATMENT | significant differences in the discrimination indices | a trend in the OTA effect on cued fear
